# Reference: ChEMBL document CHEMBL3352398, “2-(2-Bromophenyl)-formononetin and 2-heptyl-formononetin are PPARγ partial agonists and reduce lipid accumulation in 3T3-L1 adipocytes” (Bioorg Med Chem, 2014)
# pIC50: −log10 of the molar value. Activity calls are given as the source filed them. The calls are words filed in the database; no cut-off is given here.
# Tests used:
# 3T3-L1 [1] = assay: Activation of AMPK in mouse 3T3L1 cells assessed as AMPK phosphorylation at 500 uM after 5 hrs by Western blotting analysis; assay type: cell-based
# [2] = biological target: T1, Peroxisome proliferator-activated receptor gamma (Homo sapiens, UniProt P37231); assay: Binding affinity to PPAR-gamma (unknown origin)
# T1 sequence (P37231 whole entry): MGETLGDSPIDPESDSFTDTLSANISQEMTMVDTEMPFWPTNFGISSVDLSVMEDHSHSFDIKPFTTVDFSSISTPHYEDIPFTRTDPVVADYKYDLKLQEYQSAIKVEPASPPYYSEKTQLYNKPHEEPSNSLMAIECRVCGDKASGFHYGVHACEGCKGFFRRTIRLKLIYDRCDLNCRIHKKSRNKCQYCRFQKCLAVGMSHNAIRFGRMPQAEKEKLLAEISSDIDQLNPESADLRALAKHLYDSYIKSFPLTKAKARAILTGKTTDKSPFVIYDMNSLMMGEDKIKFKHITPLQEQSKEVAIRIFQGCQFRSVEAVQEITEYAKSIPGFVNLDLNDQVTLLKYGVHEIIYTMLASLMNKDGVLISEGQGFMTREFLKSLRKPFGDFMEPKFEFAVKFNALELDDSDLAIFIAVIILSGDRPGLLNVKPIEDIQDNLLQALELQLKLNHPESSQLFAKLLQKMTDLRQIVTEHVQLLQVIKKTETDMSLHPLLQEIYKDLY
# 3T3-L1 [3] = assay: Effect on adipogenesis in mouse 3T3L1 cells assessed as increase in lipid accumulation at 5 to 50 uM measured on day 8 by fluorescence-based AdipoRed assay; assay type: functional, cell-based
# [4] = Cytotoxicity against mouse 3T3L1 cells assessed as effect on lactate dehydrogenase release at 5 to 50 uM measured on day 2; assay type: cell-based; conditions: 3t3-l1, 50 µM
# 3T3-L1 [5] = assay: Reduction in triglyceride release in mouse 3T3L1 cells at 50 uM after 48 hrs by fluorescence-based AdipoRed assay; assay type: functional, cell-based
# [6] = biological target: T2, Peroxisome proliferator-activated receptor gamma (Homo sapiens) (UniProt P37231); assay: Competitive binding to human GST-tagged PPAR-gamma at <=100 uM by TR-FRET assay
# T2 sequence (whole entry): T1 sequence (P37231 whole entry)
# 3T3-L1 [7] = assay: Effect on adipogenesis in mouse 3T3L1 cells assessed as reduction in Cebpa gene expression at 5 to 50 uM after 8 days by real time quantitative PCR analysis relative to vehicle-treated control; assay type: functional, cell-based
# 3T3-L1 [8] = assay: Effect on lipolysis in mouse 3T3L1 cells assessed as reduction in glycerol level at 5 to 50 uM after 48 hrs by UV-Vis spectrophotometry; assay type: functional, cell-based
# 3T3-L1 [9] = assay: Induction of lipolysis in mouse 3T3L1 cells assessed as up-regulation of Atgl gene exression by real time-qPCR analysis; assay type: functional, cell-based
# 3T3-L1 [10] = assay: Effect on adipogenesis in mouse 3T3L1 cells in DI media assessed as increase in fat-laden mature adipocytes after 8 days by oil red o assay; assay type: functional, cell-based
# [11] = Effect on adipogenesis in mature mouse 3T3L1 cells assessed as upregulation of Sirt1 gene expression; assay type: functional, cell-based; conditions: 3T3-L1
# 3T3-L1 [12] = assay: Effect on adipogenesis in mouse 3T3L1 cells assessed as increase in lipid accumulation at 5 to 50 uM measured on day 8 by oil red o assay; assay type: functional, cell-based
# 3T3-L1 [13] = assay: Effect on adipogenesis in mouse 3T3L1 cells assessed as reduction in Cebpa gene expression at 5 to 50 uM after 4 days by real time quantitative PCR analysis relative to vehicle-treated control; assay type: functional, cell-based
# [14] = Cytotoxicity against mouse 3T3L1 cells assessed as effect on lactate dehydrogenase release at 5 to 50 uM measured on day 8; assay type: cell-based; conditions: 3t3-l1, 50 µM
# 3T3-L1 [15] = assay: Activation of AMPK in mouse 3T3L1 cells assessed as AMPK phosphorylation at 50 uM after 5 to 48 hrs by Western blotting analysis; assay type: cell-based
# [16] = Cytotoxicity against mouse 3T3L1 cells assessed as LDH release at 50 uM after 48 hrs; assay type: cell-based; conditions: 3t3-l1, 48 h
# 3T3-L1 [17] = assay: Effect on adipogenesis in mouse 3T3L1 cells assessed as reduction in Pparg gene expression at 5 to 50 uM after 4 days by real time quantitative PCR analysis relative to vehicle-treated control; assay type: functional, cell-based
# 3T3-L1 [18] = assay: Effect on adipogenesis in mouse 3T3L1 cells assessed as reduction in Srebf1 gene expression at 5 to 50 uM after 4 days by real time quantitative PCR analysis relative to vehicle-treated control; assay type: functional, cell-based
# 3T3-L1 [19] = assay: Effect on adipogenesis in mouse 3T3L1 cells assessed as reduction in Fabp4 gene expression at 5 to 50 uM after 4 days by real time quantitative PCR analysis relative to vehicle-treated control; assay type: functional, cell-based
# 3T3-L1 [20] = assay: Reduction in triglyceride release in mouse 3T3L1 cells at 50 uM after 48 hrs by oil red o assay; assay type: functional, cell-based
# 3T3-L1 [21] = assay: Effect on adipogenesis in mouse 3T3L1 cells assessed as reduction in Fabp4 gene expression at 5 to 50 uM after 8 days by real time quantitative PCR analysis relative to vehicle-treated control; assay type: functional, cell-based
# 3T3-L1 [22] = assay: Effect on adipogenesis in mouse 3T3L1 cells in DI media assessed as increase in lipid accumulation after 8 days by fluorescence-based AdipoRed assay; assay type: functional, cell-based
# [23] = biological target: T3, Peroxisome proliferator-activated receptor gamma (Mus musculus) (UniProt P37238); assay: Agonist activity at PPAR-gamma in mouse embryo fibroblast at 5 to 50 uM by transactivation assay relative to rosiglitazone
# T3 sequence (whole entry): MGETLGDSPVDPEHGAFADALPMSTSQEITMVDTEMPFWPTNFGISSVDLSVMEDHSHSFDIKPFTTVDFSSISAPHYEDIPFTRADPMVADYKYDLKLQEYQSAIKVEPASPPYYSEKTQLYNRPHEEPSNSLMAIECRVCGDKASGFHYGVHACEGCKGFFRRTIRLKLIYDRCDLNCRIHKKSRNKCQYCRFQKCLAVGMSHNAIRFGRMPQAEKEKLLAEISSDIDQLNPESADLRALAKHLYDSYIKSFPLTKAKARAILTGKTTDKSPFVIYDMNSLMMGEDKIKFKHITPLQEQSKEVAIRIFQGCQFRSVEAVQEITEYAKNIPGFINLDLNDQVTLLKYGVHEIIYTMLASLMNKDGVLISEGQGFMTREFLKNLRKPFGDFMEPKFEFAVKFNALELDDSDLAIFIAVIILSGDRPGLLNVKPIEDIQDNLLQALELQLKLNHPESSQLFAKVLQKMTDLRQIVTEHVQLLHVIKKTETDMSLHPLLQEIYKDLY
# 3T3-L1 [24] = assay: Effect on adipogenesis in mouse 3T3L1 cells assessed as reduction in Adipoq gene expression at 5 to 50 uM after 8 days by real time quantitative PCR analysis relative to vehicle-treated control; assay type: functional, cell-based
# 3T3-L1 [25] = assay: Effect on adipogenesis in mouse 3T3L1 cells assessed as reduction in Pparg gene expression at 5 to 50 uM after 8 days by real time quantitative PCR analysis relative to vehicle-treated control; assay type: functional, cell-based
# 3T3-L1 [26] = assay: Effect on adipogenesis in mouse 3T3L1 cells assessed as increase in Srebf1 gene expression at 5 to 50 uM after 8 days by real time quantitative PCR analysis relative to vehicle-treated control; assay type: functional, cell-based
# 3T3-L1 [27] = assay: Effect on adipogenesis in mouse 3T3L1 cells assessed as reduction in Adipoq gene expression at 5 to 50 uM after 4 days by real time quantitative PCR analysis relative to vehicle-treated control; assay type: functional, cell-based
# [28] = biological target: Peroxisome proliferator-activated receptor gamma (Mus musculus) (UniProt P37238); assay: Partial agonist activity at PPAR-gamma in mouse embryo fibroblast assessed as reduction in activation at 5 to 50 uM by transactivation assay in presence of rosiglitazone
# [29] = biological target: Peroxisome proliferator-activated receptor gamma (Mus musculus) (UniProt P37238); assay: Partial agonist activity at PPAR-gamma in mouse embryo fibroblast assessed as reduction in activation by transactivation assay in presence of rosiglitazone
# [30] = biological target: T4, Peroxisome proliferator-activated receptor alpha (Homo sapiens) (UniProt Q07869); assay: Agonist activity at PPAR-alpha (unknown origin) by transactivation assay
# T4 sequence (whole entry): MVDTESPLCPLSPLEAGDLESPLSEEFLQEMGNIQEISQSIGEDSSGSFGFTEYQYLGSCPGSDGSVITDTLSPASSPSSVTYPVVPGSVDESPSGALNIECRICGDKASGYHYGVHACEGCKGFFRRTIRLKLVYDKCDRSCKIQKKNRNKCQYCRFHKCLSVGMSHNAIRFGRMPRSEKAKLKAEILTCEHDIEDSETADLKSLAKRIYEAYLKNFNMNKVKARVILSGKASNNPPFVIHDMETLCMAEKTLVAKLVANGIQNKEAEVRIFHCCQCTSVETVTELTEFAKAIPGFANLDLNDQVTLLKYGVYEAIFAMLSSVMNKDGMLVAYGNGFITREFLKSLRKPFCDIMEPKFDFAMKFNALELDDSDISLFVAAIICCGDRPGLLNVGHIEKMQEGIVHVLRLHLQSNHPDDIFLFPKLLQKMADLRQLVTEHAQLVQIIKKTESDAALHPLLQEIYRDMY
# 3T3-L1 [31] = assay: Reduction in lipogenesis in mouse 3T3L1 cells assessed as down regulation of Scd1 gene exression by real time-qPCR analysis; assay type: functional, cell-based
# [32] = biological target: T3, Peroxisome proliferator-activated receptor gamma (Mus musculus); assay: Agonist activity at PPAR-gamma in mouse embryo fibroblast by transactivation assay relative to rosiglitazone
# 3T3-L1 [33] = assay: Effect on adipogenesis in mouse 3T3L1 cells in DI media assessed as reduction in lipid accumulation at 50 uM measured on day 8 by fluorescence-based AdipoRed assay; assay type: functional, cell-based
# 3T3-L1 [34] = assay: Reduction of adipogenesis in mouse 3T3L1 cells assessed as decrease in lipid accumulation measured on day 8 by oil red o assay; assay type: functional, cell-based
# 3T3-L1 [35] = assay: Effect on adipogenesis in mouse 3T3L1 cells in DI media assessed as reduction in fat-laden mature adipocytes at 50 uM after 8 days by oil red o assay; assay type: functional, cell-based
# [36] = biological target: T5, Peroxisome proliferator-activated receptor delta (Homo sapiens) (UniProt Q03181); assay: Agonist activity at PPAR-delta (unknown origin) by transactivation assay
# T5 sequence (whole entry): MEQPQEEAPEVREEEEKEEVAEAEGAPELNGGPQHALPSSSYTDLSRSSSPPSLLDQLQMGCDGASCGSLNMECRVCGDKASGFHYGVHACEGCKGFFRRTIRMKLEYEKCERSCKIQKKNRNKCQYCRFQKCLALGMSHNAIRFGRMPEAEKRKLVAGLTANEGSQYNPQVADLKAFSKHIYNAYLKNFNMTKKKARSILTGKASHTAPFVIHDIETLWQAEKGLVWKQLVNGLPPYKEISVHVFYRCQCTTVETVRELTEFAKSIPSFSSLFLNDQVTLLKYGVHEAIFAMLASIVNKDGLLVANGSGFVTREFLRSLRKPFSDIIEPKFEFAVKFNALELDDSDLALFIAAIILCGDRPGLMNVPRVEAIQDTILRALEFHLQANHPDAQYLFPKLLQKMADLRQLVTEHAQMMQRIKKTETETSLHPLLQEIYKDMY
# 3T3-L1 [37] = assay: Effect on adipogenesis in mouse 3T3L1 cells in DI media assessed as increase in fat-laden mature adipocytes at <25 uM after 8 days by oil red o assay; assay type: functional, cell-based
# 3T3-L1 [38] = assay: Effect on adipogenesis in mouse 3T3L1 cells in DI media assessed as increase in lipid accumulation at <25 uM after 8 days by fluorescence-based AdipoRed assay; assay type: functional, cell-based
# 3T3-L1 [39] = assay: Reduction of adipogenesis in mouse 3T3L1 cells assessed as decrease in lipid accumulation measured on day 8 by fluorescence-based AdipoRed assay; assay type: functional, cell-based
# 3T3-L1 [40] = assay: Induction of lipolysis in mouse 3T3L1 cells assessed as up-regulation of Acox1 gene exression by real time-qPCR analysis; assay type: functional, cell-based
compound,measurement,setting,value
NC(=O)c1ncn([C@@H]2O[C@H](CO)[C@@H](O)[C@H]2O)c1N,Activity,3T3-L1 [1],Active
COc1ccc(C(C)C(=O)c2ccc(O)cc2O)cc1 (stereo unspecified),pIC50,[2],4.59
COc1ccc(-c2coc3cc(O)ccc3c2=O)cc1 [FORMONONETIN],Activity,3T3-L1 [3],Active
same,Activity,[4],Non-toxic
same,Activity,3T3-L1 [5],inactive
same,Activity,[6],inactive
same,Activity,3T3-L1 [7],Active
same,Activity,3T3-L1 [8],Active
same,Activity,3T3-L1 [9],Active
same,Activity,3T3-L1 [10],Dose-dependent effect
same,Activity,[11],inactive
same,Activity,3T3-L1 [12],Active
same,Activity,3T3-L1 [13],Active
same,Activity,[14],Non-toxic
same,Activity,3T3-L1 [15],inactive
same,Activity,[16],Non-toxic
same,Activity,3T3-L1 [17],Active
same,Activity,3T3-L1 [18],inactive
same,Activity,3T3-L1 [19],Active
same,Activity,3T3-L1 [20],inactive
same,Activity,3T3-L1 [21],Active
same,Activity,3T3-L1 [22],Dose-dependent effect
same,Activity,[23],inactive
same,Activity,3T3-L1 [24],Active
same,Activity,3T3-L1 [25],Active
same,Activity,3T3-L1 [26],inactive
same,Activity,3T3-L1 [27],Active
same,Activity,[28],Active
COc1ccc(-c2c(-c3ccccc3Br)oc3cc(O)ccc3c2=O)cc1,Activity,[29],Dose-dependent effect
same,Activity,[4],Non-toxic
same,Activity,3T3-L1 [5],Active
same,Activity,[6],Active
same,Activity,3T3-L1 [8],Active
same,Activity,[30],inactive
same,Activity,3T3-L1 [31],Active
same,Activity,[32],Dose-dependent effect
same,Activity,[11],inactive
same,Activity,3T3-L1 [33],Active
same,Activity,[14],Non-toxic
same,Activity,3T3-L1 [15],inactive
same,Activity,3T3-L1 [34],Dose-dependent effect
same,Activity,[16],Toxic
same,Activity,3T3-L1 [35],Active
same,Activity,[36],inactive
same,Activity,3T3-L1 [20],Active
same,Activity,3T3-L1 [37],Active
same,Activity,3T3-L1 [38],Active
same,Activity,3T3-L1 [39],Dose-dependent effect
same,Activity,[23],4%
same,Activity,3T3-L1 [40],Active
COc1ccc(C2COc3cc(O)ccc3C2=O)cc1 (stereo unspecified),pIC50,[2],3.91
